Laboratory results published in patent US11414689B2, “Hydrolysis of steviol glycosides by beta-glucosidase” (Conagen Inc., priority 2017, dated 2022).

B1: B-glu1: Pichia pastoris (GS115) beta-glucosidase, SEQ ID NO: 1, His-tagged, expressed in E. coli (protein, listed as Pichia pastoris)
chain: MTQLDVESLIQELTLNEKVQLLSGSDFWHTTPVRRLGIPKMRLSDGPNGVRGTKFFNGVPTACFPCGTGLGATFDKELLKEAGSLMADEAKAKAASVVLGPTANIARGPNGGRGFESFGEDPVVNGLSSAAMINGLQGKYIAATMKHYVCNDLEMDRNCIDAQVSHRALREVYLLPFQIAVRDANPRAIMTAYNKANGEHVSQSKFLLDEVLRKEWGWDGLLMSDWFGVYDAKSSITNGLDLEMPGPPQCRVHSATDHAINSGEIHINDVDERVRSLLSLINYCHQSGVTEEDPETSDNNTPETIEKLRKISRESIVLLKDDDRNRSILPLKKSDKIAVIGNNAKQAAYCGGGSASVLSYHTTTPFDSIKSRLEDSNTPAYTIGADAYKNLPPLGPQMTDSDGKPGFDAKFFVGSPTSKDRKLIDHFQLTNSQVFLVDYYNEQIPENKEFYVDVEGQFIPEEDGTYNFGLTVFGTGRLFVDDKLVSDSSQNQTPGDSFFGLAAQEVIGSIHLVKGKAYKIKVLYGSSVTRTYEIAASVAFEGGAFTFGAAKQRNEDEEIARAVEIAKANDKVVLCIGLNQDFESEGFDRPDIKIPGATNKMVSAVLKANPNTVIVNQTGTPVEMPWASDAPVILQAWFGGSEAGTAIADVLFGDYNPSGKLTVTFPLRFEDNPAYLNFQSNKQACWYGEDVYVGYRYYETIDRPVLFPFGHGLSFTEFDFTDMFVRLEEENLEVEVVVRNTGKYDGAEVVQLYVAPVSPSLKRPIKELKEYAKIFLASGEAKTVHLSVPIKYATSFFDEYQKKWCSEKGEYTILLGSSSADIKVSQSITLEKTTFWKGL
modifications: His tag

Experiments:
[1] = test system: Beta-glucosidase (B-glu1, SEQ: 1); experiment: de-glycosylation (hydrolysis) of steviol glycosides by purified recombinant B-glu1, HPLC analysis; format: biochemical, Pichia pastoris; conditions: for extent of conversion by recombinant B-glu1 at 24 hrs: 1 g/L substrate; for Products of hydrolysis of steviol glycoside substrate by B-glu1: recombinant B-glu1 10 μg in 300 μl, 1 mg/ml steviol glycoside, 50 mM potassium phosphate pH 7.2, 30-37° C.
Description: According to the current disclosure Pichia pastoris genome analysis was completed and several beta-glycosidase candidate genes were identified. Full length DNA fragments of all candidate beta-glucosidase genes were commercially synthesized. Almost all codons of the cDNA were changed to those preferred for E. coli (Genscript, NJ). The synthesized DNA was cloned into a bacterial expression vector pETite N-His SUMO Kan Vector (Lucigen). These same experiments could be performed in Yarrowia lipolytica with sequences optimized for such use.
Each expression construct was transformed into E. coli BL21 (DE3), which was subsequently grown in LB media containing 50 μg/mL kanamycin at 37° C. until reaching an OD600 of 0.8-1.0. Protein expression was induced by addition of 1 mM isopropyl β-D-1-thiogalactopyranoside (IPTG) and the culture was further grown at 16° C. for 22 hr. Cells were harvested by centrifugation (3,000×g; 10 min; 4° C.). The cell pellets were collected and were either used immediately or stored at −80° C.
The cell pellets typically were re-suspended in lysis buffer (50 mM potassium phosphate buffer, pH 7.2, 25 ug/ml lysozyme, 5 ug/ml DNase I, 20 mM imidazole, 500 mM NaCl, 10% glycerol, and 0.4% Triton X-100). The cells were disrupted by sonication under 4° C., and the cell debris was clarified by centrifugation (18,000×g; 30 min). Supernatant was loaded to an equilibrated (equilibration buffer: 50 mM potassium phosphate buffer, pH 7.2, 20 mM imidazole, 500 mM NaCl, 10% glycerol) Ni-NTA (Qiagen) affinity column. After loading of protein sample, the column was washed with equilibration buffer to remove unbound contaminant proteins. The His-tagged beta-glucosidase recombinant polypeptides were eluted by equilibration buffer containing 250 mM imidazole.
The purified candidate beta-glucosidase recombinant polypeptides were assayed for de-glycosylation activity by using various steviol glycosides as substrate. Typically, the recombinant polypeptide (10 μg) was tested in a 300 μl in vitro reaction system. The reaction system contains 50 mM potassium phosphate buffer, pH 7.2, 1 mg/ml steviol glycoside. The reaction was performed at 30-37° C. and 50 ul reaction was terminated by adding 200 μL 1-butanol at various time points. The samples were extracted three times with 200 μL 1-butanol. The pooled fraction was dried and dissolved in 100 μL 80% methanol for high-performance liquid chromatography (HPLC) analysis.
HPLC analysis was then performed using a Dionex UPLC ultimate 3000 system (Sunnyvale, Calif.), including a quaternary pump, a temperature controlled column compartment, an auto sampler and a UV absorbance detector. A Synergi Hydro-RP column (Phenomenex) with guard column was used for the characterization of steviol glycosides in the pooled samples. Acetonitrile in water was used mobile phase in the HPLC analysis. The detection wavelength used in the HPLC analysis was 210 nm.

[2] = test system: disrupted Pichia cells (released B-glu1 enzyme); experiment: hydrolysis of steviol glycosides by disrupted Pichia cells (crude extract), HPLC analysis; format: biochemical, Pichia pastoris; conditions: crude protein 50 ug in 300 ul, 1 g/L substrate, pH 7.2, 30-37° C.; FIG. 8 samples at 24 hours
Description: Pichia cells were suspended in extraction buffer (50 mM potassium phosphate buffer, pH 7.2; 150 mM NaCl). After sonication, the supernatant (crude extract) was collected by centrifuge set at 12,000 g at 4° C. The resulting crude protein (50 ug) was tested in a 300 ul in vitro reaction system. The reaction system contains 50 mM potassium phosphate buffer, pH 7.2, 1 mg/ml steviol glycoside. The reaction was performed at 30-37° C. and 50 ul reaction was terminated by adding 200 μL 1-butanol at various time points. The samples were extracted three times with 200 μL 1-butanol. The pooled fraction was dried and dissolved in 100 μL 80% methanol for high-performance liquid chromatography (HPLC) analysis. HPLC analysis was then performed using a Dionex UPLC ultimate 3000 system (Sunnyvale, Calif.), including a quaternary pump, a temperature controlled column compartment, an auto sampler and a UV absorbance detector. A Synergi Hydro-RP column (Phenomenex) with guard column was used for the characterization of steviol glycosides in the pooled samples. Acetonitrile in water was used mobile phase in the HPLC analysis. The detection wavelength used in the HPLC analysis was 210 nm.

[3] = relative to table sugar; cited from earlier work

Molecule | Products of hydrolysis of steviol glycoside substrate by B-glu1 [1] | Products of hydrolysis by disrupted Pichia cells [2] | further results
C=C1C[C@@]23CC[C@H]4[C@@](C)(CCC[C@@]4(C)C(=O)O[C@@H]4O[C@H](CO)[C@@H](O)[C@H](O[C@@H]5O[C@H](CO)[C@@H](O)[C@H](O)[C@H]5O)[C@H]4O)[C@@H]2CC[C@]1(O[C@@H]1O[C@H](CO)[C@@H](O)[C@H](O[C@@H]2O[C@H](CO)[C@@H](O)[C@H](O)[C@H]2O)[C@H]1O[C@@H]1O[C@H](CO)[C@@H](O)[C@H](O)[C@H]1O)C3 [Reb 1, rebaudioside I] | Reb A, Reb B | rebaudioside B | extent of conversion by recombinant B-glu1 at 24 hrs [1]: completely; Products of hydrolysis of steviol glycoside substrate by B-glu1 ([1]; listed as Rebaudioside I): rebaudioside A and the produced A can be hydrolyzed to produce rebaudioside B
C=C1C[C@@]23CC[C@H]4[C@@](C)(CCC[C@@]4(C)C(=O)O[C@@H]4O[C@H](CO)[C@@H](O)[C@H](O)[C@H]4O)[C@@H]2CC[C@]1(O[C@@H]1O[C@H](CO)[C@@H](O)[C@H](O[C@@H]2O[C@H](CO)[C@@H](O)[C@H](O)[C@H]2O)[C@H]1O[C@@H]1O[C@H](CO)[C@@H](O)[C@H](O)[C@H]1O)C3 [Reb A, rebaudioside A] | Reb B | rebaudioside B | Products of hydrolysis of steviol glycoside substrate by B-glu1 ([1]; listed as Rebaudioside A): rebaudioside B
C=C1C[C@@]23CC[C@H]4[C@@](C)(CCC[C@@]4(C)C(=O)O[C@@H]4O[C@H](CO)[C@@H](O)[C@H](O)[C@H]4O[C@@H]4O[C@H](CO)[C@@H](O)[C@H](O)[C@H]4O)[C@@H]2CC[C@]1(O[C@@H]1O[C@H](CO)[C@@H](O)[C@H](O[C@@H]2O[C@H](CO)[C@@H](O)[C@H](O)[C@H]2O)[C@H]1O[C@@H]1O[C@H](CO)[C@@H](O)[C@H](O)[C@H]1O)C3 [Reb D, rebaudioside D] | Reb B | rebaudioside B | Products of hydrolysis of steviol glycoside substrate by B-glu1 ([1]; listed as Rebaudioside D): rebaudioside B (FIG. 6B) and Reb A
C=C1C[C@@]23CC[C@H]4[C@@](C)(CCC[C@@]4(C)C(=O)O[C@@H]4O[C@H](CO)[C@@H](O)[C@H](O)[C@H]4O[C@@H]4O[C@H](CO)[C@@H](O)[C@H](O)[C@H]4O)[C@@H]2CC[C@]1(O[C@@H]1O[C@H](CO)[C@@H](O)[C@H](O)[C@H]1O[C@@H]1O[C@H](CO)[C@@H](O)[C@H](O)[C@H]1O)C3 [Reb E, rebaudioside E] | stevioside, Steviolbioside (SB) | steviolbioside | Products of hydrolysis of steviol glycoside substrate by B-glu1 ([1]; listed as Rebaudioside E): stevioside and steviolbioside
C=C1C[C@@]23CC[C@H]4[C@@](C)(CCC[C@@]4(C)C(=O)O[C@@H]4O[C@H](CO)[C@@H](O)[C@H](O)[C@H]4O)[C@@H]2CC[C@]1(O[C@@H]1O[C@H](CO)[C@@H](O)[C@H](O[C@@H]2O[C@H](CO)[C@@H](O)[C@H](O)[C@H]2O)[C@H]1O)C3 [Reb G, rebaudioside G] | Steviol-13-O-glucoside (S-13-G), steviol | steviol-13-glucoside and continually to produce steviol | Products of hydrolysis of steviol glycoside substrate by B-glu1 ([1]; listed as Rebaudioside G): steviol-13-glucoside
C=C1C[C@@]23CC[C@H]4[C@@](C)(CCC[C@@]4(C)C(=O)O[C@@H]4O[C@H](CO)[C@@H](O)[C@H](O[C@@H]5O[C@H](CO)[C@@H](O)[C@H](O)[C@H]5O)[C@H]4O[C@@H]4O[C@H](CO)[C@@H](O)[C@H](O)[C@H]4O)[C@@H]2CC[C@]1(O[C@@H]1O[C@H](CO)[C@@H](O)[C@H](O[C@@H]2O[C@H](CO)[C@@H](O)[C@H](O)[C@H]2O)[C@H]1O[C@@H]1O[C@H](CO)[C@@H](O)[C@H](O)[C@H]1O)C3 [Reb M, rebaudioside M] | No cleavage | – | –
C=C1C[C@@]23CC[C@H]4[C@@](C)(CCC[C@@]4(C)C(=O)O[C@@H]4O[C@H](CO)[C@@H](O)[C@H](O)[C@H]4O)[C@@H]2CC[C@]1(O[C@@H]1O[C@H](CO)[C@@H](O)[C@H](O)[C@H]1O)C3 [Rub, rubusoside] | Steviol-13-O-glucoside (S-13-G), steviol | steviol-13-glucoside and continually to produce steviol | Products of hydrolysis of steviol glycoside substrate by B-glu1 ([1]; listed as Rubusoside): steviol-13-glucoside
C=C1C[C@@]23CC[C@H]4[C@@](C)(CCC[C@@]4(C)C(=O)O[C@@H]4O[C@H](CO)[C@@H](O)[C@H](O)[C@H]4O)[C@@H]2CC[C@]1(O[C@@H]1O[C@H](CO)[C@@H](O)[C@H](O)[C@H]1O[C@@H]1O[C@H](CO)[C@@H](O)[C@H](O)[C@H]1O)C3 [Stevioside, stevioside] | Steviolbioside (SB) | steviolbioside | sweetness relative to sucrose [3]: 100-150 times sweeter than sucrose
C=C1C[C@@]23CC[C@H]4[C@@](C)(CCC[C@@]4(C)C(=O)O)[C@@H]2CC[C@]1(O[C@@H]1O[C@H](CO)[C@@H](O)[C@H](O)[C@H]1O)C3 [steviol-13-glucoside] | steviol | – | extent of conversion by recombinant B-glu1 at 24 hrs [1]: completely
rebaudioside B [Reb B] | No cleavage | – | –
B1 | – | – | activity to cleave related steviol glycosides ([1]; activity screening of candidate Pichia pastoris beta-glucosidases): strong activity
